Assay results from patent US20230263822A1, “MODULATION OF FACTOR 11 EXPRESSION” (Ionis Pharmaceuticals, Inc., priority 2008, published 2023).
Read-outs that look alike come from different tables or passages of the source.

How the values were obtained:
[1] = design: species or system BALB/c mice; conditions: mouse, in vivo; for Blood (tail bleeding, collected over 40 minutes): sc
Protocol: ISIS 404071 and Apixaban were evaluated in the tail bleeding model.
The saline filled tubes were weighed before and after bleeding.

blood coagulation = assay: PT and aPTT, combination with warfarin (Example 21); format: in vivo, BALB/c mice
Protocol: Plasma was collected from each group 5 days after the last dose was administered. […] In a final group of BALB/c mice, PBS was administered subcutaneously twice a week for three weeks, as a control. Plasma was collected 5 days after the last PBS treatment.
PT and aPTT values provided in Table 33 are reported as International Normalized Ratio (INR) values.

[2] = test system: mesenteric vein thrombosis; assay: Mesenteric vein thrombosis, intravital microscopy (Example 22); format: in vivo; conditions: C57BL/6 mice, 50 mg/kg s.c. twice a week for three weeks
Protocol: In a first cohort, ISIS 404071 was administered subcutaneously to C57BL/6 mice twice a week for three weeks at a dose of 50 mg/kg. In a second cohort, a control oligonucleotide, ISIS 405277 ([…]; antisense oligonucleotide for Factor 2), incorporated herein as SEQ ID NO: 12 was administered subcutaneously to C57Bl/6 mice twice a week for three weeks at a dose of 50 mg/kg.
Blood was collected from the retro-orbital venous plexus of naïve C57BL/6 mice by puncture and collected in polypropylene tubes containing 300 μl of heparin (30 U/ml). Platelet rich plasma (PRP) was obtained by centrifugation at 1000 rpm for 5 min. The PRP was transferred to fresh tubes containing 2 μl of Prostaglandin I2 (PGI2) (2 μg/ml) and incubated at 37° C. for 5 min. After centrifugation at 2600 rpm, pellets were resuspended in 1 ml modified Tyrode's-HEPES buffer (137 mM NaCl, 0.3 mM Na2HPO4, 2 mM KCl, 12 mM NaHCO3, 5 mM HEPES, 5 mM glucose, 0.35% BSA, pH 7.2) containing 2 μl of PGI2 and incubated at 37° C. for 5 min. The suspended pellet was centrifuged at 2600 rpm for 5 min. To remove PGI2, the washing step was repeated twice and platelets were fluorescently labeled with calcein AM 2.5 μg/mL (Molecular Probes, Eugene, Oreg.) for 10 min at room temperature.
Fluorescently-labeled platelets were injected intravenously in ISIS 404071 treated and control oligonucleotide treated C57BL/6 mice. […] The exposed mesentery was kept moist throughout the experiment by periodic superfusion with warmed (37° C.) PBS. The mesentery was transluminated with a 12V, 100 W, DC stabilized source. Veins were visualized using a Zeiss (Germany) Axiovert 135 inverted microscope (Objective 32X) connected to an SVHS video recorder (AG-6730; Panasonic, Tokyo, Japan) using a CCD video camera (Hamamatsu Photonic Systems, Hamamatsu City, Japan). Centerline erythrocyte velocity (Vrbc) was measured using an optical Doppler velocimeter (Microcirculation Research Institute, Texas A&M College of Medicine, College Station, Tex.). Venular shear rate (τ) was calculated based on Poiseuille's Law for a newtonian fluid, τ=8(Vmean/Dv), where Dv is the diameter of the venule and Vmean is estimated from the measured Vrbc using the empirical correlation Vmean=Vrbc/1.6.
Mesenteric vein thrombosis was performed two days after the last antisense oligonucleotide injection. Thrombosis was induced by applying Whatman paper soaked in a 10% FeCl3 solution for 5 minutes on the mesenteric vein. The vein was monitored for 40 minutes, or until occlusion. The elapsed time before the first thrombus 30-50 μm in diameter and the elapsed time before blood stopped flowing for 30 seconds were observed.

platelet factor-4 (PF-4) = assay: Thrombus formation by PF-4, FeCl3 induced VT model, combination with PLAVIX (Example 26); format: in vivo, BALB/c mice; conditions: ISIS 404071 20 mg/kg, PLAVIX 0 mg/kg
Protocol: The combination of ISIS 404071 and PLAVIX was evaluated in the FeCl3 induced VT mouse model. Four groups of eight BALB/c mice, weighing approximately 25 g each, were treated with 6.25 mg/kg, 12.50 mg/kg, 25.00 mg/kg, or 50.00 mg/kg of PLAVIX. Mice were given two doses of PLAVIX on day one and one dose of PLAVIX on day two, two hours before surgery.
(§1) After the last dose of ISIS 404071, mice were treated with 6.25 mg/kg, 12.50 mg/kg, 25.00 mg/kg, or 50.00 mg/kg of PLAVIX. Two doses of PLAVIX were administered to the mice on day one and one dose of PLAVIX was administered on day two, two hours before surgery.
Two control groups of eight BALB/c mice, weighing approximately 25 g each, were not treated with ISIS 404071 or PLAVIX. […] Thrombus formation was induced with FeCl3 in all of the mice except the first […] control groups. All mice were anesthetized with 150 mg/kg of ketamine mixed with 10 mg/kg of xylazine administered by intraperitoneal injection.
After 3 minutes of exposure, the filter paper was removed. Thirty minutes after the filter paper application, a fixed length of the vein containing the thrombus was dissected out for platelet analysis.
Real-time PCR quantification of PF-4 was used to quantify platelets in the vena cava as a measure of thrombus formation. […] Therefore, the combination of anti-platelet therapy with Factor 11 ASO increases antithrombotic activity. Data is presented as percent of PF-4 mRNA as compared to the PBS+ FeCl3 control.

[3] = Tail bleeding assay, combination with PLAVIX (Example 27); format: in vivo, BALB/c mice; conditions: ISIS 404071 20 mg/kg, PLAVIX 0
Protocol: as §1, with “ISIS 404071 was administered subcutaneously at a dosage of 20 mg/kg twice a week for 3 weeks to 5 groups of eight BALB/c mice. After” for “After”, “with 0 mg/kg,” for “with”, “bleeding.” for “surgery.”
Two hours after receiving their final treatment, mice were placed in a tail bleeding chamber. […] The blood was collected for the course of 40 minutes.

[4] = BALB/c mice, ISIS 404071 25 or 50 mg/kg, warfarin 2 mg/kg
[5] = ISIS 404071 25 mg/kg s.c. twice a week for 3 weeks
[6] = ISIS 404071 50 mg/kg s.c. twice a week for 3 weeks

Substance: ISIS 404071: antisense oligonucleotide targeted to murine Factor 11 mRNA, TGGTAATCCACTTTCAGAGG, target start site 869 (chemistry not given here)
- bleeding in tail bleeding assay [1]: did not affect bleeding
- Blood (tail bleeding, collected over 40 minutes) ([1]; 1.25 mg/kg): 0.00 g
- Blood (tail bleeding, collected over 40 minutes) ([1]; 5 mg/kg): 0.00 g
- Blood (tail bleeding, collected over 40 minutes) ([1]; 10 mg/kg): 0.04 g
- Blood (tail bleeding, collected over 40 minutes) ([1]; 25 mg/kg): 0.01 g
- Blood (tail bleeding, collected over 40 minutes) ([1]; 50 mg/kg): 0.01 g
- PT (blood coagulation; [4]): not affected
- aPTT (blood coagulation; [4]): affected
- PT INR (blood coagulation; [5]): 0.98 INR
- aPTT INR (blood coagulation; [5]): 1.37 INR
- PT INR (blood coagulation; [6]): 0.93 INR
- aPTT INR (blood coagulation; [6]): 1.49 INR
- occlusion of veins within 40 minutes after injury [2]: did not occlude
- time of occlusion (occlusive thrombi) ([2]; 10% FeCl3 on mesenteric vein): 29.5 min
- time of thrombus formation (30 μm in diameter) ([2]; 10% FeCl3 on mesenteric vein): 14.8 ± 1.7 min
- PF-4 mRNA, percent as compared to the PBS + FeCl3 control (thrombus formation) (platelet factor-4 (PF-4); + FeCl3): 40%
- PF-4 mRNA, percent as compared to the PBS + FeCl3 control (thrombus formation) (platelet factor-4 (PF-4); − FeCl3): 27%
- Blood (tail bleeding, collected for 40 minutes) [3]: 0 g
